Data on 21 molecules can be found in patent publication US10174037B2, “Dihydropyrazolopyrimidinone compounds as PDE2 inhibitors” (Merck Sharp & Dohme Corp., priority 2015, dated 2019).

Where two headings read alike, the source gives them in different places.

For series [1], the system named is other PDE isoforms. The note with it: reported in Brandon et al. 2007; cited from earlier work.
The conditions of series [2]: reported in Brandon et al. 2007; cited from earlier work.
Series [3] has as its target Rhesus PDE2A3 (Macaca mulatta, UniProt B3VTJ2). The series can be described thus: PDE2 fluorescence polarization (IMAP FP) assay, rhesus PDE2A3. In kind it is biochemical, rhesus macaque.
Series [4] has as its target human PDE2A1 (Homo sapiens (Human), UniProt O00408). Description: PDE selectivity IMAP FP assay, human PDE2A1. In kind it is biochemical. The note with it: Human PDE2. Summed up: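 IMAP fluorescence polarization assay; PDE2 substrate 50 nM FAM-cAMP containing 1000 nM cGMP, enzyme diluted for 20% substrate conversion, in 10 mM Tris HCl pH 7.2, 10 mM MgCl2, 1 mM DTT. Reaction 60 min at room temperature, stopped with IMAP binding solution; polarization read after 1 h. Ki reported.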

The mark [5] stands for this setting: Lab B, read-out: Rhesus PDE2 Ki (nM) Lab B.
Where [6] appears, read: Lab B, read-out: Human PDE2 Ki (nM) Lab B.
[7] abbreviates: Lab A, read-out: Rhesus PDE2 Ki (nM) Lab A.
[8] abbreviates: Lab A, read-out: Human PDE2 Ki (nM) Lab A.

Chain of human PDE2A1 (O00408 other isoform, or with tags, fused parts or gaps): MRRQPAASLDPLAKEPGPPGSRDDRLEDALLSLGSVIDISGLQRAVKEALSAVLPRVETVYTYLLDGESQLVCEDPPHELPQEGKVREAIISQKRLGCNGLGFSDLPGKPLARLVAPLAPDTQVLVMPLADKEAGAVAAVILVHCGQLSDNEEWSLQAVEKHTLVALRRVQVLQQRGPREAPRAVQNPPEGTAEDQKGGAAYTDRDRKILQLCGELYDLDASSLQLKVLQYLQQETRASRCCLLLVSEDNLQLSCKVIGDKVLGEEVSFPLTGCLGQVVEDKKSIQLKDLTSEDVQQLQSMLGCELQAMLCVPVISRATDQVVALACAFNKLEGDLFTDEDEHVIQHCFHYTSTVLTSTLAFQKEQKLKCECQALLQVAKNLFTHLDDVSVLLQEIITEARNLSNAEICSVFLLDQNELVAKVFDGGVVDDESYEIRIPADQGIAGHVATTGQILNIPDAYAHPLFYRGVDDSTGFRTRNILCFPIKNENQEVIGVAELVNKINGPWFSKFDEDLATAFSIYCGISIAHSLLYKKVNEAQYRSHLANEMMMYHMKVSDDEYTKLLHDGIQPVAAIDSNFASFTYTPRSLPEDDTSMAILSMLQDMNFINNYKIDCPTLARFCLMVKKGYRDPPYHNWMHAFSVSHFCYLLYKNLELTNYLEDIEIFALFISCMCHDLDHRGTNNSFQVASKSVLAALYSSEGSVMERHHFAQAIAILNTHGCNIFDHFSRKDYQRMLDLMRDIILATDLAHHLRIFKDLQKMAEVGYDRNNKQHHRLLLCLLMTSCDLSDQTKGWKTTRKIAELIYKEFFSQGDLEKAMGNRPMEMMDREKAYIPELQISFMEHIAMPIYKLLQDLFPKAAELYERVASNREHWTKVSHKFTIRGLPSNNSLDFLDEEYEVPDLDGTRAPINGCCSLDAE
Chain of Rhesus PDE2A3 (B3VTJ2 1-941): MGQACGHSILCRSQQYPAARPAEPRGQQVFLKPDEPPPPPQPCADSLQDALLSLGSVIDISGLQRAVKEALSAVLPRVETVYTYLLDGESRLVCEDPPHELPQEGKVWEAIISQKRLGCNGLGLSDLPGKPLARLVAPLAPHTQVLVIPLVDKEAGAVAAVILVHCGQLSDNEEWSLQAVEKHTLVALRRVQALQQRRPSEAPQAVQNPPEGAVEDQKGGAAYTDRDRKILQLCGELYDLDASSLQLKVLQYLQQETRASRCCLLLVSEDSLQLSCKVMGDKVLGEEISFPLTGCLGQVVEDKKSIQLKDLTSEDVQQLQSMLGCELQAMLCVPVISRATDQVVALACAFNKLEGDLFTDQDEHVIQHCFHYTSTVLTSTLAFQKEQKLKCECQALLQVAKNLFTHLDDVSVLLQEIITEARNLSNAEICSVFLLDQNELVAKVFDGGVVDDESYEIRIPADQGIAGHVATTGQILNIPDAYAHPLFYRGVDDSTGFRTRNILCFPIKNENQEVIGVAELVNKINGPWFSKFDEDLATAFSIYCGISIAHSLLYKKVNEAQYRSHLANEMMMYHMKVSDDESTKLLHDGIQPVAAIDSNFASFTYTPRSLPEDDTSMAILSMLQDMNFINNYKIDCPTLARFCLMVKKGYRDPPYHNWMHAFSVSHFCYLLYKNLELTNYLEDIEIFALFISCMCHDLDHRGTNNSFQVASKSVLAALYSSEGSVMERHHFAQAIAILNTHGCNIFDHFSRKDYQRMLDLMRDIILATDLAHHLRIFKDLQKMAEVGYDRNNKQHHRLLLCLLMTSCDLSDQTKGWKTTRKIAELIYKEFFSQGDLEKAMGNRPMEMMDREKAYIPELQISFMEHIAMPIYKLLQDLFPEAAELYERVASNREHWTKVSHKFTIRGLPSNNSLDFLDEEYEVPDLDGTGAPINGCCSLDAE

As to `COc1ccc(Cc2nn3c([C@@H](CCCc4ccccc4)[C@@H](C)O)nc(C)c3c(=O)[nH]2)cc1OC` [BAY 60-7550], the “potency at other PDE isoforms” value in series [1] is listed as “significant potency”. Also, the brain penetration entry in series [2] is “limited”.
Consider `CC(C)c1ccc(C(C(C)C)n2nc(CF)c3c(=O)[nH]c(N(C)C)nc32)cc1` (single isomer, unassigned) [Example 176, (R)- or (S)-6-(Dimethylamino)-3-(fluoromethyl)-1-(1-(4-isopropylphenyl)-2-methylpropyl)-1H-pyrazolo[3,4-d]pyrimidin-4(5H)-one], for which the figures for the Ki in series [3] (setting [5]) and in series [4] (setting [6]) were 0.28 nM and 0.23 nM, respectively.
In the same order, the values of `CC(c1ccc(C(F)(F)F)c(F)c1)n1nc(CC(F)(F)F)c2c(=O)[nH]c(O)nc21` (single isomer, unassigned) [Example 235, (S)- or (R)-1-(1-(3-Fluoro-4-(triduoromethyl)phenyl)ethyl)-6-hydroxy-3-(2,2,2-trifluoroethyl)-1H-pyrazolo[3,4-d]pyrimidin-4(5H)-one] are 1.5 nM and 1.4 nM.
In the case of `CC(c1ccc(OC(F)(F)F)cc1)n1nc(CF)c2c(=O)[nH]c(O)nc21` (centres unmarked) [Example 36, 3-(Fluoromethvl)-6-hydroxy-1-(1-(4-(trifluoromethoxy)phenyl)ethyl)-1H-pyrazolo[3,4-d]pyrimidin-4(5H)-one], the Ki in series [3] (setting [7]) was 11 nM; in series [3] (setting [5]), 18 nM; in series [4] (setting [8]), 6.5 nM; in series [4] (setting [6]), 17 nM.
For the molecule `CCC(c1ccc(C(C)(F)F)c(F)c1)n1nc(CF)c2c(=O)[nH]c(N(C)C)nc21` (single isomer, unassigned) [Example 217, (S)- or (R)-1-(1-(4-(1,1-Difluoroethyl)-3-fluorophenyl)propyl)-6-(dimethylamino)-3-(fluoromethyl)-1H-pyrazolo[3,4-d]pyrimidin-4(5H)-one], the values for the Ki in series [3] (setting [5]) and in series [4] (setting [6]) were 0.027 nM and 0.016 nM, respectively.
Turning to `CC(C)C(c1ccc(C(F)(F)F)cc1)n1nc(CF)c2c(=O)[nH]c(O)nc21` (centres unmarked) [Example 40, 3-(Fluoromethyl)-6-hydroxy-1-(2-methyl-1-(4-(trifluoromethyl)phenyl)propyl)-1H-pyrazolo[3,4-d]pyrimidin-4(5H)-one], the Ki in series [3] (setting [7]) was determined as 1.7 nM; in series [3] (setting [5]), 2 nM; in series [4] (setting [8]) it was 0.56 nM; in series [4] (setting [6]), 2.1 nM.
Consider `CN(C)c1nc2c(c(CF)nn2C(c2ccc(CC(F)(F)F)cc2)C2CC2)c(=O)[nH]1` (single isomer, unassigned) [Example 192, (R)- or (S)-1-(Cyclopropyl(4-(2,2,2-trifluoroethyl)phenyl)methyl)-6-(dimethylamino)-3-(fluoromethyl)-1H-pyrazolo[3,4-d]pyrimidin-4(5H)-one], for which the inhibition constant Ki in series [3] (setting [5]) is 0.42 nM; in series [4] (setting [6]), 0.41 nM.
For the molecule `CN(C)c1nc2c(c(CO)nn2C(c2ccc(C(F)(F)F)cc2)C2CC2)c(=O)[nH]1` (single isomer, unassigned) [Example 75, (S)- or (R)-1-(Cyclopropyl(4-(trifluoromethyl)phenyl)methyl)-6-(dimethylamino)-3-(hydroxymethyl)-1H-pyrazolo[3,4-d]pyrimidin-4(5H)-one], the figures for the inhibitory constant (Ki) in series [3] (setting [5]) and in series [4] (setting [6]) were 0.79 nM and 1.1 nM, respectively.
With `C[C@@H](c1ccc(C(F)(F)F)cc1)n1nc(CO)c2c(=O)[nH]c(N3CC(F)C3)nc21` [Example 161, 6-(3-Fluoroazetidin-1-yl)-3-(hydroxymethyl)-1-{(1S)-1-[4-(trifluoromethyl)phenyl]ethyl}-1,5-dihydro-4H-pyrazolo[3,4-d]pyrimidin-4-one], the inhibition constant (Ki) in series [3] (setting [5]) worked out at 1.9 nM; in series [4] (setting [6]), 1.6 nM.
Take `CC(C)C(c1ccc(C(C)(F)F)c(F)c1)n1nc(CF)c2c(=O)[nH]c(N(C)C)nc21` (single isomer, unassigned) [Example 219, (S)- or (R)-1-(1-(4-(1,1-Difluoroethyl)-3-fluorophenyl)-2-methylpropyl)-6-(dimethylamino)-3-(fluoromethyl)-1H-pyrazolo[3,4-d]pyrimidin-4(5H)-one]: the Ki in series [3] (setting [5]) stood at 0.03 nM; in series [4] (setting [6]), 0.022 nM.
For `CN(C)c1nc2c(c(CO)nn2C(c2ccc(C(C)(F)F)cc2)C2CC2)c(=O)[nH]1` (single isomer, unassigned) [Example 141, (S)- or (R)-1-(Cyclopropyl(4-(1,1-difluoroethyl)phenyl)methyl)-6-(dimethylamino)-3-(hydroxymethyl)-1H-pyrazolo[3,4-d]pyrimidin-4(5H)-one], in that order: 0.64 nM and 0.56 nM.
As to `CC(c1ccc(C(C)(F)F)c(F)c1)n1nc(CO)c2c(=O)[nH]c(N(C)C)nc21` (single isomer, unassigned) [Example 107, (S)- or (R)-1-(1-(4-(1,1-Difluoroethyl)-3-fluorophenyl)ethyl)-6-(dimethylamino)-3-(hydroxymethyl)-1H-pyrazolo[3,4-d]pyrimidin-4(5H)-one], the inhibition constant Ki in series [3] (setting [5]) and in series [4] (setting [6]) was 0.12 nM throughout.
Turning to `CC(C)c1ccc(C(C(C)C)n2nc(CF)c3c(=O)[nH]c(N(C)C)nc32)cc1` (single isomer, unassigned) [Example 177, (S)- or (R)-6-(Dimethylamino)-3-(fluoromethyl)-1-(1-(4-isopropylphenyl)-2-methylpropyl)-1H-pyrazolo[3,4-d]pyrimidin-4(5H)-one], the Ki in series [3] (setting [5]) was determined as 0.058 nM; in series [4] (setting [6]), 0.047 nM.
As for `CC(c1ccc(CC(F)(F)F)cc1)n1nc(CO)c2c(=O)[nH]c(N(C)C)nc21` (single isomer, unassigned) [Example 71, (S)- or (R)-6-(Dimethylamino)-3-(hydroxymethyl)-1-(1-(4-(2,2,2-trifluoroethyl)phenyl)ethyl)-1H-pyrazolo[3,4-d]pyrimidin-4(5H)-one], the Ki in series [3] (setting [5]) is 0.95 nM; in series [4] (setting [6]), 0.75 nM.
As to `CC(c1ccc(OC(F)(F)F)cc1)n1nc(CO)c2c(=O)[nH]c(O)nc21` (centres unmarked) [Example 5], the figures for the inhibition constant Ki in series [3] (setting [7]), in series [3] (setting [5]) and in series [4] (setting [8]) were 77 nM, 126 nM and 59 nM, respectively.
Turning to `CC(c1ccc(C(C)(F)F)cc1)n1nc(CO)c2c(=O)[nH]c(N(C)C)nc21` (single isomer, unassigned) [Example 103, (S)- or (R)-1-(1-(4-(1,1-Difluoroethyl)phenyl)ethyl)-6-(dimethylamino)-3-(hydroxymethyl)-1H-pyrazolo[3,4-d]pyrimidin-4(5H)-one], the Ki turned out to be 0.3 nM in series [3] (setting [5]) and 0.28 nM in series [4] (setting [6]).
For the molecule `CN(C)c1nc2c(c(CF)nn2C(c2ccc(CC(F)(F)F)cc2)C2CC2)c(=O)[nH]1` (single isomer, unassigned) [Example 193, (S)- or (R)-1-(Cyclopropyl(4-(2,2.2-trifluoroethyl)phenyl)methyl)-6-(dimethylamino)-3-(fluoromethyl)-1H-pyrazolo[3,4-d]pyrimidin-4(5H)-one], the Ki in series [3] (setting [5]) came to 0.41 nM; in series [4] (setting [6]), 0.39 nM.
As for `COCc1nn([C@@H](C)c2ccc(C(F)(F)F)cc2)c2nc(O)[nH]c(=O)c12` [Example 304, (S)-6-Hydroxy-3-(methoxymethyl)-1-(1-(4-(trifluoromethyl)phenyl)ethyl)-1,5-dihydro-4H-pyrazolo[3,4-d]pyrimidin-4-one], the values for the Ki in series [3] (setting [5]) and in series [4] (setting [6]) were 43 nM and 46 nM, respectively.
For `CC(C)C(c1ccc(OC(F)F)cc1)n1nc(CO)c2c(=O)[nH]c(N(C)C)nc21` (single isomer, unassigned) [Example 121], the figures for the inhibition constant Ki in series [3] (setting [5]) and in series [4] (setting [6]) were 0.31 nM and 0.34 nM, respectively.
In the case of `CC(C)C(c1ccc(C(C)(F)F)cc1)n1nc(CF)c2c(=O)[nH]c(N(C)C)nc21` (single isomer, unassigned) [Example 207, (S)- or (R)-1-(1-(4-(1,1-Difluoroethyl)phenyl)-2-methylpropyl)-6-(dimethylamino)-3-(fluoromethyl)-1H-pyrazolo[3,4-d]pyrimidin-4(5H)-one], the Ki in series [3] (setting [5]) was determined as 0.043 nM; in series [4] (setting [6]), 0.03 nM.
As to `CCC(c1ccc(C(F)(F)F)cc1)n1nc(CF)c2c(=O)[nH]c(N(C)C)nc21` (single isomer, unassigned) [Example 173, (S)- or (R)-6-(Dimethylamino)-3-(fluoromethyl)-1-(1-(4-(trifluoromethyl)phenyl)propyl)-1H-pyrazolo[3,4-d]pyrimidin-4(5H)-one], the figures for the Ki in series [3] (setting [5]) and in series [4] (setting [6]) were 0.096 nM and 0.063 nM, respectively.

What is called Ki is a dissociation constant, usually derived from enzyme kinetics or from competition with a known ligand.
